Values joined by “and” are separate entries in the source; they are usually repeats but may differ in a detail not shown here. Identical values can stand only once. Toxic doses and inconclusive results are not listed. Rule as the data show it: active = T/C of 150% or more; inactive = T/C below 125%.
System: L1210 leukemia ip in BDF1 mice, survival T/C
Assay: NCI In Vivo Anticancer Drug Screen. Data for tumor model L1210 Leukemia (intraperitoneal) in B6D2F1 (BDF1) mice
Settings: endpoint: mean survival time, higher = longer survival
How it was run: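 Antitumor effect is assessed in tumor-bearing animals. Survival in the compound arm is compared with a vehicle-dosed control arm and expressed as their quotient.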

[1] = dose: 50.0 mg/kg/injection, schedule: Q01DX009 (ip), vehicle: saline with Tween-80
[2] = dose: 100.0 mg/kg/injection, schedule: Q01DX009 (ip), vehicle: saline with Tween-80
[3] = dose: 200.0 mg/kg/injection, schedule: Q01DX009 (ip), vehicle: saline with Tween-80
[4] = dose: 100.0 mg/kg/injection, schedule: Q04DX002 (ip), vehicle: saline with Tween-80
[5] = dose: 100.0 mg/kg/injection, schedule: Q04DX002 (ip), vehicle: Klucel (hydroxypropylcellulose) (HPC)
[6] = dose: 12.5 mg/kg/injection, schedule: Q01DX009 (ip), vehicle: saline with Tween-80
[7] = dose: 100.0 mg/kg/injection, schedule: Q04DX003 (ip), vehicle: Klucel (hydroxypropylcellulose) (HPC)
[8] = dose: 200.0 mg/kg/injection, schedule: Q04DX003 (ip), vehicle: Klucel (hydroxypropylcellulose) (HPC)
[9] = dose: 400.0 mg/kg/injection, schedule: Q04DX003 (ip), vehicle: Klucel (hydroxypropylcellulose) (HPC)
[10] = dose: 50.0 mg/kg/injection, schedule: Q04DX003 (ip), vehicle: Klucel (hydroxypropylcellulose) (HPC)
[11] = dose: 100.0 mg/kg/injection, schedule: Q01DX001 (ip), vehicle: Klucel (hydroxypropylcellulose) (HPC)
[12] = dose: 100.0 mg/kg/injection, schedule: Q01DX009 (ip), vehicle: Klucel (hydroxypropylcellulose) (HPC)
[13] = dose: 200.0 mg/kg/injection, schedule: Q01DX001 (ip), vehicle: Klucel (hydroxypropylcellulose) (HPC)
[14] = dose: 400.0 mg/kg/injection, schedule: Q01DX001 (ip), vehicle: Klucel (hydroxypropylcellulose) (HPC)

Measured: T/C

CN1CC(C)(C)C(O)c2ccccc21 (centres undefined)
inactive: dose: 25.0 mg/kg/injection, schedule: Q04DX002 (ip), vehicle: other 100 % of control | dose: 50.0 mg/kg/injection, schedule: Q04DX002 (ip), vehicle: other 90 % of control | dose: 100.0 mg/kg/injection, schedule: Q04DX002 (ip), vehicle: other 107 % of control

CC1=CC(=O)C(c2ccccc2)CC1 (centres undefined) (tested in a mixture with another compound)
inactive: [1] 96 % of control | [2] 96 % of control | [3] 96 % of control

Cc1nc(SCc2ccc(Cl)cc2)[nH]c(=O)c1CCO
inactive: [2] 92 % of control | [3] 92 % of control | dose: 400.0 mg/kg/injection, schedule: Q01DX009 (ip), vehicle: saline with Tween-80 92 % of control

CCCCCCCCCCCCCCCC[N+](C)(C)C1=C([O-])C(=O)N(c2ccc(Cl)c(Cl)c2)C1=O
inactive: dose: 50.0 mg/kg/injection, schedule: Q04DX002 (ip), vehicle: saline with Tween-80 94 % of control | [4] 94 % of control

Cc1cc[n+]2n1CC(O)C2 (centres undefined)
inactive: dose: 50.0 mg/kg/injection, schedule: Q01DX001 (ip), vehicle: saline 102 % of control | dose: 100.0 mg/kg/injection, schedule: Q01DX001 (ip), vehicle: saline 100 % of control | dose: 200.0 mg/kg/injection, schedule: Q01DX001 (ip), vehicle: saline 96 % of control | dose: 400.0 mg/kg/injection, schedule: Q01DX001 (ip), vehicle: saline 102 % of control

CC1CN(C(=N)C#N)C(C)CN1C(=N)C#N (centres undefined)
inactive: [2] 92 % of control | dose: 100.0 mg/kg/injection, schedule: Q04DX003 (ip), vehicle: saline with Tween-80 109 % of control | dose: 200.0 mg/kg/injection, schedule: Q04DX003 (ip), vehicle: saline with Tween-80 104 % of control

NC(=O)C(CCC(=O)O)NC(=O)OCc1ccccc1 (centres undefined)
inactive: dose: 25.0 mg/kg/injection, schedule: Q04DX002 (ip), vehicle: Klucel (hydroxypropylcellulose) (HPC) 100 % of control | dose: 50.0 mg/kg/injection, schedule: Q04DX002 (ip), vehicle: Klucel (hydroxypropylcellulose) (HPC) 92 % of control | [5] 100 % of control

c1ccc2c(c1)O[As](O[As]1Oc3ccccc3O1)O2
inactive: dose: 1.56 mg/kg/injection, schedule: Q04DX003 (ip), vehicle: saline 104 % of control | dose: 3.12 mg/kg/injection, schedule: Q01DX009 (ip), vehicle: saline with Tween-80 108 % of control | dose: 3.12 mg/kg/injection, schedule: Q04DX003 (ip), vehicle: saline 106 % of control | dose: 6.25 mg/kg/injection, schedule: Q01DX009 (ip), vehicle: saline with Tween-80 116 % of control | dose: 6.25 mg/kg/injection, schedule: Q04DX003 (ip), vehicle: saline 115 % of control | [6] 122 % of control | dose: 12.5 mg/kg/injection, schedule: Q04DX003 (ip), vehicle: saline with Tween-80 96 % of control

C#CC(O)C1OC(C)(C)OC1C1COC(C)(C)O1 (centres undefined)
inactive: [7] 97 % of control | [8] 92 % of control | [9] 94 % of control

Cc1c(Cl)cccc1NC(=O)c1ccc(Cl)c(Cl)c1
inactive: dose: 100.0 mg/kg/injection, schedule: Q01DX009 (ip), vehicle: gum acacia 88 % of control | [7] 103 % of control | dose: 200.0 mg/kg/injection, schedule: Q01DX009 (ip), vehicle: gum acacia 88 % of control | [8] 90 % of control | dose: 400.0 mg/kg/injection, schedule: Q01DX009 (ip), vehicle: gum acacia 91 % of control | [9] 95 % of control

NC(C(=O)O)C(C(=O)O)c1ccccc1 (centres undefined)
inactive: [5] 101 % of control | dose: 200.0 mg/kg/injection, schedule: Q04DX002 (ip), vehicle: Klucel (hydroxypropylcellulose) (HPC) 101 % of control | dose: 400.0 mg/kg/injection, schedule: Q04DX002 (ip), vehicle: Klucel (hydroxypropylcellulose) (HPC) 93 % of control

CCN=C(Nc1ccc(C(=NC)NCC)cc1)c1ccc(C(=NCC)Nc2ccc(C(=NC)NCC)cc2)cc1
inactive: dose: 0.5 mg/kg/injection, schedule: Q01DX Z (ip), vehicle: saline 97 % of control | dose: 0.8 mg/kg/injection, schedule: Q01DX Z (ip), vehicle: saline 97 % of control | dose: 1.2 mg/kg/injection, schedule: Q01DX Z (ip), vehicle: saline 97 % of control | dose: 1.77 mg/kg/injection, schedule: Q01DX Z (ip), vehicle: saline 97 % of control and 89 % of control | dose: 2.66 mg/kg/injection, schedule: Q01DX Z (ip), vehicle: saline 93 % of control | dose: 4.0 mg/kg/injection, schedule: Q01DX Z (ip), vehicle: saline 96 % of control

CCCCN=Cc1cc([N+](=O)[O-])ccc1O.CCCCN=Cc1cc([N+](=O)[O-])ccc1O.[Ni]
inactive: [6] 98 % of control | dose: 25.0 mg/kg/injection, schedule: Q01DX009 (ip), vehicle: saline with Tween-80 94 % of control | [1] 86 % of control

CC(=O)C1CCC2(C)CCC(=O)C(C)C2C1 (centres undefined)
inactive: [10] 107 % of control | [11] 104 % of control | [12] 100 % of control | [7] 104 % of control | [13] 106 % of control | dose: 200.0 mg/kg/injection, schedule: Q01DX009 (ip), vehicle: Klucel (hydroxypropylcellulose) (HPC) 100 % of control | [8] 101 % of control | [14] 101 % of control | dose: 400.0 mg/kg/injection, schedule: Q01DX009 (ip), vehicle: Klucel (hydroxypropylcellulose) (HPC) 98 % of control | [9] 101 % of control

CCCCCCCCCCCCCCCCCCNC(=O)Nc1ccccc1CC
inactive: dose: 100.0 mg/kg/injection, schedule: Q01DX009 (sc), vehicle: olive oil, sesame oil, peanut oil 104 % of control | dose: 100.0 mg/kg/injection, schedule: Q04DX003 (sc), vehicle: olive oil, sesame oil, peanut oil 98 % of control | dose: 200.0 mg/kg/injection, schedule: Q01DX009 (sc), vehicle: olive oil, sesame oil, peanut oil 104 % of control | dose: 200.0 mg/kg/injection, schedule: Q04DX003 (sc), vehicle: olive oil, sesame oil, peanut oil 94 % of control | dose: 400.0 mg/kg/injection, schedule: Q01DX009 (sc), vehicle: olive oil, sesame oil, peanut oil 106 % of control | dose: 400.0 mg/kg/injection, schedule: Q04DX003 (sc), vehicle: olive oil, sesame oil, peanut oil 109 % of control

Brc1cc(Cc2c(Br)csc2Br)c(Br)s1
inactive: [4] 101 % of control | dose: 200.0 mg/kg/injection, schedule: Q04DX002 (ip), vehicle: saline with Tween-80 101 % of control | dose: 400.0 mg/kg/injection, schedule: Q04DX002 (ip), vehicle: saline with Tween-80 101 % of control

Clc1ccc(C2=NC(c3ccccc3)N3C2C3c2ccccc2)cc1 (centres undefined)
inactive: dose: 100.0 mg/kg/injection, schedule: Q01DX001 (ip), vehicle: saline with Tween-80 95 % of control | dose: 200.0 mg/kg/injection, schedule: Q01DX001 (ip), vehicle: saline with Tween-80 89 % of control | dose: 400.0 mg/kg/injection, schedule: Q01DX001 (ip), vehicle: saline with Tween-80 89 % of control

CC(=O)Oc1c2c(c(CC=C(C)C)c3c1C(=O)C1=CC4CC5C(C)(C)OC(C/C=C(/C)C(=O)O)(C4=O)C15O3)OC(C)(CCC=C(C)C)C=C2 (centres undefined)
inactive: dose: 50.0 mg/kg/injection, schedule: Q01DX009 (ip), vehicle: Klucel (hydroxypropylcellulose) (HPC) 109 % of control | [10] 103 % of control | [11] 106 % of control | [12] 91 % of control | [7] 97 % of control | [13] 114 % of control | [8] 105 % of control | [14] 110 % of control

From PubChem BioAssay AID248 (DTP/NCI, 2004)
